From patent US20190359989A1, “FUSION PROTEIN AND APPLICATIONS THEREOF” (CARSGEN THERAPEUTICS CO., LTD., priority 2016, published 2019)
Values belong to the molecule of their own block, whether it stands above or below them. Where a SMILES comes first, the peptide text is derived from it. [ ]: non-standard residue; d: D form. Dolaproine = CO[C@@H]([C@@H]1CCCN1)[C@@H](C)C(=O)O; Dil = CC[C@H](C)[C@H](NC)[C@@H](CC(=O)O)OC; NMeV = CN[C@H](C(=O)O)C(C)C

Key:
FR806-positive T cells = assay: CCK8 assay for killing FR806-expressing T cells; assay type: cell-based, human; settings: CCK8, 72 h, 10-1000 nM
Experimental: Experimental group: T cells expressing eGFP-FR806 after sorted in Example 3 were plated in a 96-well plate at 3×10^4 cells per well in 100 ul of medium, 5 replicate wells per drug concentration, and then a blank group of medium was set. Control group: T cells that were not infected with the virus were taken and plated in a 96-well plate according to the operation of the experimental group. […] After 72 h, 10 ul of CCK8 reagent (Dojindo) was added to each well and incubated at 37° C. for 3 h, and the absorbance was measured at 450 nm by a microplate reader to calculate the cell viability.
According to the above procedure, the sorted T cells infected with eGFP-FR806 were taken and plated in a 96-well plate at 3×10^4 cells per well in 100 ul of culture medium, 5 replicate wells per drug concentration, and then a blank group of medium was set. The control group was uninfected T cells, which were plated in a 96-well plate by the same method. Six concentrations of free MMAFs of 1000 nM, 500 nM, 100 nM, 50 nM, 10 nM and 0 nM were added to T cells at specific concentrations to prepare six gradients (i.e., the aforementioned six concentrations). After 72 h, 10 ul of CCK8 reagent (Dojindo) was added to each well for 3 h at 37° C., and the absorbance was measured at 450 nm by a microplate reader to calculate the cell viability. […]

FR806-positive HEK293T = assay: Cell killing experiment on EGFR+ HEK293T cells expressing FR806; assay type: cell-based
Excerpt: Moreover, the applicant selected EGFR+ HEK293T cells expressing FR806, and subjected them to cell killing experiments.

FR806-negative HEK293T = assay: Cell killing experiment on FR806-negative EGFR+ HEK293T cells; assay type: cell-based
[1] = molecular target: T1, EGFR on Keratinocyte cells and HEK-293T cells (human, UniProt P00533 25-1210); assay: FACS on Keratinocyte cells and HEK-293T cells expressing EGFR
T1 construct: whole, on cells; also called epidermal growth factor receptor

Molecule: CC[C@H](C)[C@@H]([C@@H](CC(=O)N1CCC[C@H]1[C@H](OC)[C@@H](C)C(=O)N[C@@H](Cc1ccccc1)C(=O)O)OC)N(C)C(=O)[C@@H](NC(=O)[C@@H](NC)C(C)C)C(C)C [Free MMAF, MMAF] (H-[NMeV]V[Dil][Dolaproine]F-OH)
- killing levels to T cells expressing and not expressing FR806 (FR806-positive T cells): comparable
- killing of FR806-positive HEK293T (FR806-positive HEK293T): killed
- killing of FR806-negative HEK293T (FR806-negative HEK293T): killed

- binding result [1]: no binding
B1: CH12 antibody (antibody, human IgG1, kappa, V domains shown)
VH: DVQLQESGPGLVKPSQSLSLTCTVTAYSVTSDYAWNWIRQFPGNKLEWMGYISYSGTTRYNPSLKSRISITRDTSKNQFFLQLNSMTAEDTATYYCSRQGRGFPYWGQGTLVTVSA
VL: DILMTQSPSSMSVSLGDTVSITCHASQDINSNIGWLQQKPGKSFKGLIYHGTNLEDGVPSRFSGSGSGADYSLTISSLESEDFADYYCVQYAQFPWTFGGGTKLEIKR
notes: CH12 antibody as disclosed in CN 200810038848.8; detected with goat anti-human IgG
